Results on 15 molecules are retold here after patent publication US20240116985A1, “STAPLED PEPTIDES AND METHODS THEREOF” (priority 2020, published 2024).

A short description of the series: Solubility in PBS. Type of series: physicochemical. The note with it: for solubility at 15 min: Solubility (uM). The procedure, abridged:
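Steps: ultracentrifuge the peptide PBS solution, inject the supernatant on HPLC, inject a 50 μM peptide DMSO solution as reference, then calculate solubility as area ratio (PBS/DMSO) × 50 uM.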

Values after ≈ are worked out from the molar mass of the structure shown.

The Solubility is the dissolved amount per volume that the medium holds. As to `CC(=O)N1CCC[C@]12CC=CCCCC1(CCCC=CCCCOC(=O)N3CC[C@@](C(=O)N[C@@H](Cc4ccccc4Cl)C(=O)N[C@@H](Cc4csc5ccccc45)C(=O)N[C@@H](CO)C(N)=O)(C3)NC(=O)[C@H](Cc3ccccc3)NC(=O)[C@H](Cc3ccccc3)NC(=O)[C@H](C)NC(=O)[C@H](C)NC(=O)[C@H](Cc3cccc(C(=O)O)c3)NC(=O)[C@H](CC(=O)O)NC1=O)NC(=O)[C@H](CC(C)(C)C)NC(=O)[C@H](CC(=O)O)NC2=O` (stereo partly drawn) [I-1339, PL3-Asp-Npg-B5-Asp-3COOHF-Ala-Ala-Phe-Phe-PyrS2-2C1F-BztA-Ser-NH2], the “Solubility” value amounted to 10 µM (≈ 20.1 µg/mL).
The same measure, in the same setting: under `CC(=O)N1CCC[C@]12CC=CCCCC1(CCCC=CCCCOC(=O)N3CC[C@@](C(=O)N[C@@H](Cc4ccccc4Cl)C(=O)N[C@@H](Cc4csc5ccccc45)C(=O)N[C@H](CO)[C@@H](C)O)(C3)NC(=O)[C@H](Cc3ccccc3)NC(=O)[C@H](Cc3ccccc3)NC(=O)[C@H](C)NC(=O)[C@H](C)NC(=O)[C@H](Cc3cccc(C(=O)O)c3)NC(=O)[C@H](CC(=O)O)NC1=O)NC(=O)[C@H](CC(C)(C)C)NC(=O)[C@H](CC(=O)O)NC2=O` (stereo partly drawn) [I-1340, PL3-Asp-Npg-B5-Asp-3COOHF-Ala-Ala-Phe-Phe-PyrS2-2C1F-BztA-Thro1] stands 10 µM (≈ 20.2 µg/mL).
A word on the solubility: it is how much of the substance goes into solution per volume. Low readings indicate a poorly soluble substance, high ones a readily soluble substance. For the molecule `CC(=O)N1CCC[C@]12CC=CCCCC1(CCCC=CCCCOC(=O)N3CC[C@@](C(=O)N[C@@H](Cc4cccs4)C(=O)N[C@@H](Cc4csc5ccccc45)C(=O)N[C@@H](CCC(N)=O)C(N)=O)(C3)NC(=O)[C@H](CC(C)C)NC(=O)[C@H](Cc3ccccc3)NC(=O)[C@H](C)NC(=O)[C@H](C)NC(=O)[C@H](CC(=O)O)NC(=O)[C@H](CC(=O)O)NC1=O)NC(=O)[C@H](CC(C)(C)C)NC(=O)[C@H](CC(=O)O)NC2=O` (stereo partly drawn) [I-1344, PL3-Asp-Npg-B5-Asp-Asp-Ala-Ala-Phe-Leu-PyrS2-2Thi-BztA-Gln-NH2], the solubility at 15 min is 44 µM (≈ 84.4 µg/mL).
Same read-out and setting: under `CC(=O)N1CCC[C@]12CC=CCCCC1(CCCC=CCCCOC(=O)N3CC[C@@](C(=O)N[C@@H](Cc4cccs4)C(=O)N[C@@H](Cc4csc5ccccc45)C(=O)N[C@@H](CCC(N)=O)C(N)=O)(C3)NC(=O)[C@H](Cc3ccccc3)NC(=O)[C@H](Cc3ccccc3)NC(=O)[C@H](C)NC(=O)[C@H](C)NC(=O)[C@H](CC(=O)O)NC(=O)[C@H](CC(=O)O)NC1=O)NC(=O)[C@H](CC(C)(C)C)NC(=O)[C@H](CC(=O)O)NC2=O` (stereo partly drawn) [I-1345, PL3-Asp-Npg-B5-Asp-Asp-Ala-Ala-Phe-Phe-PyrS2-2Thi-BztA-Gln-NH2] stands 37 µM (≈ 72.2 µg/mL).
Consider `CC(=O)N1CCC[C@]12CC=CCCCC1(CCCC=CCCCOC(=O)N3CC[C@@](C(=O)N[C@H](Cc4ccccc4)C(=O)N[C@@H](Cc4csc5ccccc45)C(=O)N[C@@H](CCC(N)=O)C(N)=O)(C3)NC(=O)[C@H](CC(N)=O)NC(=O)[C@H](Cc3ccccc3)NC(=O)[C@H](C)NC(=O)[C@H](C)NC(=O)[C@H](CC(=O)O)NC(=O)[C@H](CC(=O)O)NC1=O)NC(=O)[C@H](CC(C)(C)C)NC(=O)[C@H](CC(=O)O)NC2=O` (stereo partly drawn) [I-1346, PL3-Asp-Npg-B5-Asp-Asp-Ala-Ala-Phe-Asn-PyrS2-dPhe-BztA-Gln-NH2], for which the “Solubility” value was found to be 50 µM (≈ 95.6 µg/mL).
Turning to `CC(=O)N1CCC[C@]12CC=CCCCC1(CCCC=CCCCOC(=O)N3CC[C@@](C(=O)N[C@@H](CCc4ccccc4)C(=O)N[C@@H](Cc4csc5ccccc45)C(=O)N[C@@H](CCC(N)=O)C(N)=O)(C3)NC(=O)[C@H](CC(C)C)NC(=O)[C@H](Cc3ccccc3)NC(=O)[C@H](C)NC(=O)[C@H](C)NC(=O)[C@H](CC(=O)O)NC(=O)[C@H](CC(=O)O)NC1=O)NC(=O)[C@H](CC(C)(C)C)NC(=O)[C@H](CC(=O)O)NC2=O` (stereo partly drawn) [I-1350, PL3-Asp-Npg-B5-Asp-Asp-Ala-Ala-Phe-Leu-PyrS2-hPhe-BztA-Gln-NH2], the concentration in solution (solubility at 15 min) was 28 µM (≈ 53.9 µg/mL).
In turn, `CC(=O)N1CCC[C@]12CC=CCCCC1(CCCC=CCCCOC(=O)N3CC[C@@](C(=O)N[C@@H](CCc4ccccc4)C(=O)N[C@@H](Cc4csc5ccccc45)C(=O)N[C@@H](CCC(N)=O)C(N)=O)(C3)NC(=O)[C@H](Cc3ccccc3)NC(=O)[C@H](Cc3ccccc3)NC(=O)[C@H](C)NC(=O)[C@H](C)NC(=O)[C@H](CC(=O)O)NC(=O)[C@H](CC(=O)O)NC1=O)NC(=O)[C@H](CC(C)(C)C)NC(=O)[C@H](CC(=O)O)NC2=O` (stereo partly drawn) [I-1351, PL3-Asp-Npg-B5-Asp-Asp-Ala-Ala-Phe-Phe-PyrS2-hPhe-BztA-Gln-NH2] returned a solubility at 15 min of 14 µM (≈ 27.4 µg/mL).
Same read-out and setting: under `CC(=O)N1CCC[C@]12CC=CCCCC1(CCCC=CCCCOC(=O)N3CC[C@@](C(=O)N[C@@H](CC4CCCC4)C(=O)N[C@@H](Cc4csc5ccccc45)C(=O)N[C@@H](CCC(N)=O)C(N)=O)(C3)NC(=O)[C@H](CC(C)C)NC(=O)[C@H](Cc3ccccc3)NC(=O)[C@H](C)NC(=O)[C@H](C)NC(=O)[C@H](CC(=O)O)NC(=O)[C@H](CC(=O)O)NC1=O)NC(=O)[C@H](CC(C)(C)C)NC(=O)[C@H](CC(=O)O)NC2=O` (stereo partly drawn) [I-1353, PL3-Asp-Npg-B5-Asp-Asp-Ala-Ala-Phe-Leu-PyrS2-CypA-BztA-Gln-NH2] stands 44 µM (≈ 83.7 µg/mL).
`COCCC(=O)N1CCC[C@]12CC=CCCCC1(CCCC=CCCCOC(=O)N3CC[C@@](C(=O)N[C@@H](Cc4ccccc4)C(=O)N[C@@H](Cc4csc5ccccc45)C(=O)N[C@@H](CO)C(N)=O)(C3)NC(=O)[C@H](CO)NC(=O)[C@H](Cc3ccccc3)NC(=O)[C@H](C)NC(=O)[C@H](C)NC(=O)[C@H](CC(=O)O)NC(=O)[C@H](CC(=O)O)NC1=O)NC(=O)[C@H](CC(C)(C)C)NC(=O)[C@H](CC(=O)O)NC2=O` (stereo partly drawn) [I-1357, PL3-Asp-Npg-B5-Asp-Asp-Ala-Ala-Phe-Ser-PyrS2-Phe-BztA-Ser-NH2] had a solubility at 15 min of 48 µM (≈ 90.6 µg/mL).
`CCN(CC)C(=O)[C@H](CCC(N)=O)NC(=O)[C@H](Cc1csc2ccccc12)NC(=O)[C@H](Cc1ccsc1)NC(=O)[C@]12CCN(C1)C(=O)OCCCC=CCCCC1(CCCC=CC[C@]3(CCCN3C(C)=O)C(=O)N[C@@H](CC(=O)O)C(=O)N[C@@H](CC(C)(C)C)C(=O)N1)C(=O)N[C@@H](CC(=O)O)C(=O)N[C@@H](CC(=O)O)C(=O)N[C@@H](C)C(=O)N[C@@H](C)C(=O)N[C@@H](Cc1ccccc1)C(=O)N[C@@H](CC(N)=O)C(=O)N2` (stereo partly drawn) [I-1373, PL3-Asp-Npg-B5-Asp-Asp-Ala-Ala-Phe-Asn-PyrS2-3Thi-BztA-Gln-NEt2]: the “Solubility” value came out at 50 µM (≈ 98.7 µg/mL).
On to `CC(=O)N1CCC[C@]12CC=CCCCC1(CCCC=CCCCOC(=O)N3CC[C@@](C(=O)N[C@@H](Cc4ccsc4)C(=O)N[C@@H](Cc4csc5ccccc45)C(=O)N[C@@H](CCC(N)=O)C(=O)NC4CCCCC4)(C3)NC(=O)[C@H](CC(N)=O)NC(=O)[C@H](Cc3ccccc3)NC(=O)[C@H](C)NC(=O)[C@H](C)NC(=O)[C@H](CC(=O)O)NC(=O)[C@H](CC(=O)O)NC1=O)NC(=O)[C@H](CC(C)(C)C)NC(=O)[C@H](CC(=O)O)NC2=O` (stereo partly drawn) [I-1374, PL3-Asp-Npg-B5-Asp-Asp-Ala-Ala-Phe-Asn-PyrS2-3Thi-BztA-Gln-NHCyHe], for which the “Solubility” value worked out at 10 µM (≈ 20 µg/mL).
For `CC(=O)N1CCC[C@]12CC=CCCCC1(CCCC=CCCCOC(=O)N3CC[C@@](C(=O)N[C@@H](Cc4ccsc4)C(=O)N[C@@H](Cc4csc5ccccc45)C(=O)N[C@@H](CCC(N)=O)C(=O)NC4CC4)(C3)NC(=O)[C@H](CC(N)=O)NC(=O)[C@H](Cc3ccccc3)NC(=O)[C@H](C)NC(=O)[C@H](C)NC(=O)[C@H](CC(=O)O)NC(=O)[C@H](CC(=O)O)NC1=O)NC(=O)[C@H](CC(C)(C)C)NC(=O)[C@H](CC(=O)O)NC2=O` (stereo partly drawn) [I-1375, PL3-Asp-Npg-B5-Asp-Asp-Ala-Ala-Phe-Asn-PyrS2-3Thi-BztA-Gln-NHCyPr], the “Solubility” value was 50 µM (≈ 97.9 µg/mL).
Take `CC(=O)N1CCC[C@]12CC=CCCCC1(CCCC=CCCCOC(=O)N3CC[C@@](C(=O)N[C@@H](Cc4ccccc4)C(=O)N[C@@H](Cc4csc5ccccc45)C(=O)N[C@@H](CCC(N)=O)C(N)=O)(C3)NC(=O)[C@H](CC(C)C)NC(=O)[C@H](Cc3ccccc3)NC(=O)[C@H](C)NC(=O)[C@H](CCCCNC(C)C)NC(=O)[C@H](CCCCN)NC(=O)[C@H](CC(N)=O)NC1=O)NC(=O)[C@H](C)NC(=O)[C@H](CC(=O)O)NC2=O` (stereo partly drawn) [I-1380, Ac-PL3-Asp-Ala-B5-Asn-Lys-iPrLys-Ala-Phe-Leu-PyrS2-Phe-BztA-Gln-NH2]: the “Solubility” value is 10 µM (≈ 19.7 µg/mL).
Regarding `CC(=O)N1CCC[C@]12CC=CCCCC1(CCCC=CCCCOC(=O)N3CC[C@@](C(=O)N[C@@H](Cc4ccccc4)C(=O)N[C@@H](Cc4ccc5ccccc5c4)C(=O)N[C@@H](CCC(N)=O)C(N)=O)(C3)NC(=O)[C@H](CC(C)C)NC(=O)[C@H](Cc3ccccc3)NC(=O)[C@H](C)NC(=O)[C@H](CCCCNC(C)C)NC(=O)[C@H]([C@@H](C)O)NC(=O)[C@H](CC(N)=O)NC1=O)NC(=O)[C@H](C)NC(=O)[C@H](CC(=O)O)NC2=O` (stereo partly drawn) [I-1381, Ac-PL3-Asp-Ala-B5-Asn-Thr-iPrLys-Ala-Phe-Leu-PyrS2-Phe-2NapA-Gln-NH2], the “Solubility” value came out at 10 µM (≈ 19.3 µg/mL).
For the molecule `CC(=O)N1CCC[C@]12CC=CCCCC1(CCCC=CCCCOC(=O)N3CC[C@@](C(=O)N[C@@H](Cc4ccccc4)C(=O)N[C@@H](Cc4csc5ccccc45)C(=O)N[C@H](C(N)=O)[C@@H](C)O)(C3)NC(=O)[C@H](CC(C)C)NC(=O)[C@H](Cc3ccccc3)NC(=O)[C@H](C)NC(=O)[C@H](CCCCNC(C)C)NC(=O)[C@H]([C@@H](C)O)NC(=O)[C@H](CC(=O)O)NC1=O)NC(=O)[C@H](C)NC(=O)[C@H](CC(N)=O)NC2=O` (stereo partly drawn) [I-1384, Ac-PL3-Asn-Ala-B5-Asp-Thr-iPrLys-Ala-Phe-Leu-PyrS2-Phe-BztA-Thr-NH2], the “Solubility” value was found to be 10 µM (≈ 19.1 µg/mL).
